From patent US20240196899A1, “PESTICIDAL MIXTURES” (priority 2021, published 2024)

How the values were obtained:
T. urticae = test: Insecticidal % control against T. urticae, Colby synergy; type: in vivo, Tetranychus urticae
Description: (§1) Colby's method is used to determine if synergy exists for a combination of active ingredients. According to Colby, the expected action (E) of active ingredients A+B is:
(§2) [formula] • where E=expected efficacy, A and B=the efficacy of two active ingredients A and B at a given dose.
(§3) When the percentage of control observed (O) for the combination is greater than the expected (E) percentage, there is a synergistic effect. The synergism ratio (R) is calculated as the ratio between the […].
(§4) The insecticidal compounds A (Novaluron) and B (mix partner) are formulated as equivalent suspension concentrates to eliminate the effects of differing formulation inerts on biological activity. Efficacy of the insecticidal compositions is evaluated with reference to a scale of 0% to 100% in comparison with untreated control plots. 0 means no damage and 100 means complete destruction of the harmful pests.
(§5) Likewise following experimentations were done on other mixtures of novaluron on various pests, the result of which are summarized in the below tables: […]

M. persicae = test: Insecticidal % control against M. persicae, Colby synergy; type: in vivo, Myzus persicae
Description: as §1, §2, §3, §4, §5

B. tabaci = test: Insecticidal % control against B. tabaci, Colby synergy; type: in vivo, Bemisia tabaci; settings: Table 7, 72 hours after treatment
Description: as §1, §2, §3, §4, §5

T. absoluta = test: Insecticidal % control against T. absoluta, Colby synergy; type: in vivo, Tuta absoluta; settings: 72 hours after treatment
Description: as §1, §2, §3, §4, §5

[1] = system: Spodoptera littoralis larvae; test: Larval mortality of S. littoralis fed on treated castor bean leaves (tank mix novaluron + methoxyfenozide), Colby synergy; type: in vivo; settings: Table 1, 0.01 mg a.i./L of each active
Description: as §1, §2, §3
A representative experiment was conducted to evaluate the insecticidal control of novaluron, a compound II, namely methoxyfenozide as well as a mixture of novaluron and methoxyfenozide against Spodoptera littoralis larvae.
(§6) The experiments were conducted by applying commercially available compositions of Novaluron (Rimon®) and methoxyfenozide (Runner®) alone or together. The compositions were diluted with water to the stated concentration of the active compound.
(§7) The following active ingredients and their mixtures were evaluated: • Novaluron: 0.01 mg a.i./liter • Methoxyfenozide: 0.01 mg a.i./liter • Novaluron+Methoxyfenozide 0.01 mg a.i./liter+0.01 mg a.i./liter
(§8) To evaluate the insecticidal control of novaluron and methoxyfenozide alone and in a binary mixture, castor bean leaves were treated with the above listed treatments. The treated leaves were exposed for 4-day feeding to 3rd-instar Spodoptera littoralis and the larvae were exposed for additional 4 days on untreated leaves. Larval mortality was determined at day 4 and 8. The treatments were composed of 3-5 replicates of 10 larvae each.

F. occidentalis = test: Insecticidal % control against F. occidentalis, Colby synergy; type: in vivo, Frankliniella occidentalis
Description: as §1, §2, §3, §4, §5

[2] = system: Spodoptera littoralis larvae; test: Larval weight gain (LWG) of S. littoralis on treated castor bean leaves; type: in vivo; settings: Table 3
Description: as §6, §7, §8
Larval weight gain (LWG) was also measured in order to determine the effectiveness of the mixture of novaluron and methoxyfenozide when compared to the solo application of novaluron and methoxyfenozide.
Table 3 below summarizes the larval weight gain (LWG) (compared to the control), that was determined 4 days after treatment for the mixture of novaluron and methoxyfenozide.

S. frugiperda = test: Insecticidal % control against S. frugiperda, Colby synergy; type: in vivo, Spodoptera frugiperda; settings: 120 hours after treatment
Description: as §1, §2, §3, §4, §5

[3] = system: Cotton Leafworm, S. littoralis; test: Insecticidal % control against Cotton Leafworm, S. littoralis, Colby synergy; type: in vivo, Spodoptera littoralis; settings: 72 hours after treatment
Description: as §1, §2, §3, §4, §5

A. gossypii = test: Insecticidal % control against A. gossypii, Colby synergy; type: in vivo, Aphis gossypii; settings: 96 hours after treatment
Description: as §1, §2, §3, §4, §5

H. halys = test: Insecticidal % control against H. halys, Colby synergy; type: in vivo, Halyomorpha halys; settings: Table 20 B; 144 hours after treatment; 50 ppm
Description: as §1, §2, §3, §4, §5

O=C(NC(=O)c1c(F)cccc1F)Nc1ccc(OC(F)(F)C(F)OC(F)(F)F)c(Cl)c1 (single isomer, unassigned; (+)) [Novaluron, (+)-I-[3-chloro-4-(1,1,2-trifluoro-2-trifluoromethoxyethoxy)phenyl]-3-(2,6-difluorobenzoyl) urea]
Observed % control (O) (T. urticae; Table 6 C, 48 hours after treatment, 6 ppm): 0%
Observed % control (O) (T. urticae; Table 6 D, 72 hours after treatment, 6 ppm): 0%
Observed % control (O) (T. urticae; Table 6 E, 7 days after treatment, 6 ppm): 6.1%
Observed % control (O) (T. urticae; Table 14 A, 48 hours after treatment, 2.4 ppm): 12%
Observed % control (O) (T. urticae; Table 14 A, 48 hours after treatment, 120 ppm): 8%
Observed % control (O) (T. urticae; Table 14 B, 72 hours after treatment, 2.4 ppm): 13%
Observed % control (O) (T. urticae; Table 14 B, 72 hours after treatment, 120 ppm): 10%
Observed % control (O) (T. urticae; Table 14 C, 7 days after treatment, 2.4 ppm): 15%
Observed % control (O) (T. urticae; Table 14 C, 7 days after treatment, 120 ppm): 17%
Observed % control (O) (M. persicae; Table 6 A, 72 hours after treatment, 1 ppm): 34%
Observed % control (O) (M. persicae; Table 6 B, 7 days after treatment, 1 ppm): 38.8%
Observed % control (O) (M. persicae; Table 15 A, 48 hours after treatment, 50 ppm): 14%
Observed % control (O) (M. persicae; Table 15 B, 72 hours after treatment, 0.5 ppm): 30%
Observed % control (O) (M. persicae; Table 15 B, 72 hours after treatment, 50 ppm): 44%
Observed % control (O) (M. persicae; Table 17 A, 72 hours after treatment, 0.2 ppm): 56%
Observed % control (O) (M. persicae; Table 17 B, 7 days after treatment, 0.2 ppm): 62.5%
Observed % control (O) (M. persicae; Table 19 B, 7 days after treatment, 500 ppm): 72.9%
Observed % control (O) (B. tabaci; 7 ppm): 23.1%
Observed % control (O) (B. tabaci; 35 ppm): 25.2%
Observed % control (O) (T. absoluta; Table 2, 300 ppm): 0%
Observed % control (O) (T. absoluta; Table 5 C, 0.1 ppm): 16.7%
Observed % control (O) (T. absoluta; Table 5 C, 1 ppm): 16.7%
Observed % control (O) (T. absoluta; Table 5 C, 300 ppm): 16.7%
Larval mortality, % (observed) 4 d ([1]; 3rd-instar larvae, 4-day feeding on treated leaves, day 4): 3.5%
Larval mortality, % (observed) 8 d ([1]; 4 days on treated then 4 days on untreated leaves, day 8): 20%
Observed % control (O) (F. occidentalis; Table 4 A, 48 hours after treatment, 5.3 ppm): 14.0%
Observed % control (O) (F. occidentalis; Table 4 B, 72 hours after treatment, 5.3 ppm): 20.0%
Observed % control (O) (F. occidentalis; Table 4 C, 7 days after treatment, 5.3 ppm): 40.0%
Observed % control (O) (F. occidentalis; Table 5 D, 48 hours after treatment, 3.5 ppm): 4.0%
Observed % control (O) (F. occidentalis; Table 5 E, 72 hours after treatment, 3.5 ppm): 4.0%
Observed % control (O) (F. occidentalis; Table 5 F, 7 days after treatment, 3.5 ppm): 8.0%
Observed % control (O) (F. occidentalis; Table 18 B, 72 hours after treatment, 5 ppm): 10.0%
Observed % control (O) (F. occidentalis; Table 18 B, 72 hours after treatment, 500 ppm): 10.0%
Observed % control (O) (F. occidentalis; Table 20 C, 48 hours after treatment, 1 ppm): 16.0%
Observed % control (O) (F. occidentalis; Table 20 D, 72 hours after treatment, 1 ppm): 50.0%
Observed % control (O) (F. occidentalis; Table 20 D, 72 hours after treatment, 100 ppm): 50.0%
Observed % control (O) (F. occidentalis; Table 20 E, 7 days after treatment, 1 ppm): 74.0%
Observed % control (O) (F. occidentalis; Table 20 E, 7 days after treatment, 100 ppm): 84.0%
LWG % rel. Control ([2]; 4 days after treatment, 0.01 mg a.i./L of each active): 108 % rel. Control
effect on the weight gain of the Spodoptera littoralis larvae ([2]; applied alone): neither novaluron nor methoxyfenozide alone have any effect on the weight gain
Observed % control (O) (S. frugiperda; Table 5 A, 0.01 ppm): 27%
Observed % control (O) (S. frugiperda; Table 5 A, 0.05 ppm): 40%
Observed % control (O) (S. frugiperda; Table 9, 0.01 ppm): 27%
Observed % control (O) (S. frugiperda; Table 9, 0.025 ppm): 30%
Observed % control (O) (S. frugiperda; Table 10 A, 0.025 ppm): 30%
Observed % control (O) ([3]; Table 5 B, 0.02 ppm): 0%
Observed % control (O) ([3]; Table 8, 12 ppm): 75%
Observed % control (O) ([3]; Table 10 B, 0.02 ppm): 30%
Observed % control (O) ([3]; Table 11, 12 ppm): 25%
Observed % control (O) ([3]; Table 12, 12 ppm): 75%
Observed % control (O) ([3]; Table 13, 12 ppm): 75%
Observed % control (O) ([3]; Table 16, 0.04 ppm): 73%
Observed % control (O) ([3]; Table 20 A, 0.02 ppm): 0%
Observed % control (O) ([3]; Table 20 A, 0.2 ppm): 5%
Observed % control (O) ([3]; Table 21, 12 ppm): 12.5%
Observed % control (O) (A. gossypii; Table 18 A, 10 ppm): 16.2%
Observed % control (O) (A. gossypii; Table 19 A, 100 ppm): 16.5%
Observed % control (O) (H. halys): 12.5%
